Patent publication US20260000076A1, “ANTIMICROBIAL COMBINATIONS” (Clariant International Ltd, priority 2022, published 2026)

Key:
Assay type in all cases: cell-based
[1] = tested on: Burkholderia cepacia (B) DSM 7288; experiment: Minimum inhibitory concentration (MIC), agar dilution; details: DSM7288, Caso-Agar, pH 7 (+/−0.2)
Procedure: (§1) The antimicrobial properties of Velsan Flex, CHA and a combination of both against bacteria, yeast and mold were investigated: For testing the inhibition of bacteria, Velsan Flex, CHA or a combination of both was diluted in 1,2-propanediol and added in different concentrations to liquid Caso-Agar at 50° C. and was buffered to pH 7 (+/−0.2). For testing the inhibition of yeast and mold, Velsan Flex, CHA or a combination of both was diluted in 1,2-propanediol and added in different concentrations to liquid Sabouraud-4% Dextrose-Agar at 50° C. and was buffered to pH 5.6 (+/−0.2). Each of the solutions was poured into a petri-dish and inoculated with the same amount of bacteria, yeast or mold respectively. The minimum inhibitory concentration (MIC) is the lowest concentration of the respective composition that inhibits the growth of the respective microorganism where the next lowest dilution fails to inhibit the growth of said microorganism. The experiments were carried out in scientifically fair conditions so that a proper comparison could be made and conclusions drawn.

[2] = tested on: Klebsiella pneumoniae (B) DSM 786; experiment: as above; details: DSM786, Caso-Agar, pH 7 (+/−0.2)
Procedure: as §1

[3] = tested on: Serratia marcescens (B) BAM 491; experiment: as above; details: Caso-Agar, pH 7 (+/−0.2)
Procedure: as §1

[4] = tested on: Aspergillus brasiliensis (M) DSM 1988; experiment: as above; details: DSM1988, Sabouraud-4% Dextrose-Agar, pH 5.6 (+/−0.2)
Procedure: as §1

[5] = tested on: Aspergillus terreus (M) IMI 45543; experiment: as above; details: Sabouraud-4% Dextrose-Agar, pH 5.6 (+/−0.2)
Procedure: as §1

[6] = tested on: Candida parapsilosis (Y) DSM 5784; experiment: as above; details: Lodderomyces parapsilosis, DSM5784; Sabouraud-4% Dextrose-Agar, pH 5.6 (+/−0.2)
Procedure: as §1

[7] = tested on: Enterobacter aerogenes (B) NCIMB 10102; experiment: as above; details: Klebsiella aerogenes, NCIMB10102; Caso-Agar, pH 7 (+/−0.2)
Procedure: as §1

[8] = tested on: Escherichia coli (B) DSM 682; experiment: as above; details: DSM682, Caso-Agar, pH 7 (+/−0.2)
Procedure: as §1

[9] = tested on: Candida albicans (Y) DSM 1386; experiment: as above; details: DSM1386, Sabouraud-4% Dextrose-Agar, pH 5.6 (+/−0.2)
Procedure: as §1

[10] = tested on: Staphylococcus aureus (B) DSM 799; experiment: as above; details: DSM799, Caso-Agar, pH 7 (+/−0.2)
Procedure: as §1

[11] = tested on: Pseudomonas aeruginosa (B) DSM 1128; experiment: as above; details: DSM1128, Caso-Agar, pH 7 (+/−0.2)
Procedure: as §1

[12] = tested on: Pseudomonas aeruginosa, Staphylococcus aureus, Escherichia coli, Candida albicans and Aspergillus brasiliensis; experiment: Challenge test, overall result over all test germs; set-up: key: An A-criteria is related to an excellent protection of a formulation; B-criteria is needed to show sufficient protection but additional risk eliminating measures related to packaging and raw material quality need to be applied; With an F-criteria for any of the organism tested the whole challenge test is failed and the preservation/protection of the formulation is not sufficient; details: for Challenge test Overall result: Example 2B, CHA 0.1%, Velsan SC 0.9%, Velsan CGE 0.9%
Excerpt: (§2) Following examples show challenge test results that were done according to EUROPEAN PHARMACOPOEIA 10TH EDITION. Chapter 5.1.3. As representative microorganisms the following test germs were used: Pseudomonas aeruginosa (gram-negative organism, short “P.a.”), Staphylococcus aureus (gram-positive organism, short “S.a.”), Escherichia coli (gram negative organism, short “E.c.”), Candida albicans (yeast, short “C.a.”) and Aspergillus brasiliensis (mold, short “A.b.”).
(§3) The A criteria express the recommended efficacy to be achieved. In justified cases where the A criteria cannot be attained, for example for reasons of an increased risk of adverse reactions, the B criteria must be satisfied. An A-criteria is related to an excellent protection of a formulation, B-criteria is needed to show sufficient protection but additional risk eliminating measures related to packaging and raw material quality need to be applied. With an F-criteria for any of the organism tested the whole challenge test is failed and the preservation/protection of the formulation is not sufficient.
(§4) As a reference an unpreserved sample of the respective formulation was tested as well.
(§5) As a test system a difficult to preserve formulation was used: […]
(§6) As a Test System the Following Formulation was Used: […]

Staphylococcus aureus = experiment: Challenge test (European Pharmacopoeia 10th Edition, Chapter 5.1.3) in leave-on O/W-cream gel; set-up: key: An A-criteria is related to an excellent protection of a formulation; B-criteria is needed to show sufficient protection but additional risk eliminating measures related to packaging and raw material quality need to be applied; With an F-criteria for any of the organism tested the whole challenge test is failed and the preservation/protection of the formulation is not sufficient; details: for Challenge test result S.a.: Example 2A, Velsan Flex 1.35%, CHA 0.15%; for Challenge test result Staphylococcus aureus: Example 2B, CHA 0.1%, Velsan SC 0.9%, Velsan CGE 0.9%
Excerpt: as §2, §3, §4, §5, §6

Aspergillus brasiliensis = experiment: as above; set-up: key: An A-criteria is related to an excellent protection of a formulation; B-criteria is needed to show sufficient protection but additional risk eliminating measures related to packaging and raw material quality need to be applied; With an F-criteria for any of the organism tested the whole challenge test is failed and the preservation/protection of the formulation is not sufficient; details: for Challenge test result A.b.: Example 2A, Velsan Flex 1.35%, CHA 0.15%; for Challenge test result Aspergillus brasiliensis: Example 2B, CHA 0.1%, Velsan SC 0.9%, Velsan CGE 0.9%
Excerpt: as §2, §3, §4, §5, §6

Escherichia coli = experiment: as above; set-up: key: An A-criteria is related to an excellent protection of a formulation; B-criteria is needed to show sufficient protection but additional risk eliminating measures related to packaging and raw material quality need to be applied; With an F-criteria for any of the organism tested the whole challenge test is failed and the preservation/protection of the formulation is not sufficient; details: for Challenge test result E.c.: Example 2A, Velsan Flex 1.35%, CHA 0.15%; for Challenge test result Escherichia coli: Example 2B, CHA 0.1%, Velsan SC 0.9%, Velsan CGE 0.9%
Excerpt: as §2, §3, §4, §5, §6

Pseudomonas aeruginosa = experiment: as above; set-up: key: An A-criteria is related to an excellent protection of a formulation; B-criteria is needed to show sufficient protection but additional risk eliminating measures related to packaging and raw material quality need to be applied; With an F-criteria for any of the organism tested the whole challenge test is failed and the preservation/protection of the formulation is not sufficient; details: for Challenge test result P.a.: Example 2A, Velsan Flex 1.35%, CHA 0.15%; for Challenge test result Pseudomonas aeruginosa: Example 2B, CHA 0.1%, Velsan SC 0.9%, Velsan CGE 0.9%
Excerpt: as §2, §3, §4, §5, §6

Candida albicans = experiment: as above; set-up: key: An A-criteria is related to an excellent protection of a formulation; B-criteria is needed to show sufficient protection but additional risk eliminating measures related to packaging and raw material quality need to be applied; With an F-criteria for any of the organism tested the whole challenge test is failed and the preservation/protection of the formulation is not sufficient; details: for Challenge test result C.a.: Example 2A, Velsan Flex 1.35%, CHA 0.15%; for Challenge test result Candida albicans: Example 2B, CHA 0.1%, Velsan SC 0.9%, Velsan CGE 0.9%
Excerpt: as §2, §3, §4, §5, §6

Molecule	Challenge test Overall result ([12]; pH 5)	Challenge test Overall result ([12]; pH 7)	Challenge test result Staphylococcus aureus (Staphylococcus aureus; pH 5)	Challenge test result Staphylococcus aureus (Staphylococcus aureus; pH 7)	Challenge test result Aspergillus brasiliensis (Aspergillus brasiliensis; pH 5)	Challenge test result Aspergillus brasiliensis (Aspergillus brasiliensis; pH 7)	Challenge test result Escherichia coli (Escherichia coli; pH 5)	Challenge test result Escherichia coli (Escherichia coli; pH 7)	Challenge test result Pseudomonas aeruginosa (Pseudomonas aeruginosa; pH 5)	Challenge test result Pseudomonas aeruginosa (Pseudomonas aeruginosa; pH 7)	Challenge test result Candida albicans (Candida albicans; pH 5)	Challenge test result Candida albicans (Candida albicans; pH 7)	further results
CCCCCCCC(=O)NO [10% CHA solution, Caprylhydroxamic acid]	–	–	–	–	–	–	–	–	–	–	–	–	MIC [1]: 3000 µg/mL; MIC [2]: 3000 µg/mL; MIC [3]: 4000 µg/mL; MIC [4]: 3000 µg/mL; MIC [5]: 2000 µg/mL; MIC [6]: 2000 µg/mL; MIC [7]: 6000 µg/mL; MIC [8]: 5000 µg/mL; MIC [9]: 2000 µg/mL; MIC [10]: 8000 µg/mL; MIC [11]: 8000 µg/mL
CCCCCCCC(=O)NO [CHA, Caprylhydroxamic acid]	B	F	A	F	B	A	B	B	A	A	A	A	Challenge test, criteria obtained over all test organisms ([12]; Example 2A, pH 5, Velsan Flex 1.35%, CHA 0.15%): B; Challenge test result S.a. (Staphylococcus aureus; pH 5): A; Challenge test result S.a. (Staphylococcus aureus; pH 7): B; Challenge test result A.b. (Aspergillus brasiliensis; pH 5): A; Challenge test result A.b. (Aspergillus brasiliensis; pH 7): A; Challenge test result E.c. (Escherichia coli; pH 5): B; Challenge test result E.c. (Escherichia coli; pH 7): B; Challenge test result P.a. (Pseudomonas aeruginosa; pH 5): A; Challenge test result P.a. (Pseudomonas aeruginosa; pH 7): A; Challenge test result C.a. (Candida albicans; pH 5): A; Challenge test result C.a. (Candida albicans; pH 7): A
Sorbitan caprylate [Velsan SC]	F	F	A	A	F	F	A	B	F	F	B	B	–
